# Assay results: publication PMC4320118, “Micheliolide Derivative DMAMCL Inhibits Glioma Cell Growth In Vitro and In Vivo” (PLoS ONE, 2015)
# Where two headings read alike, the source gives them in different places.
# Legend:
# [1] = test system: C6 cells; assay: Cell proliferation MTT assay, C6; format: cell-based; details: Rattus norvegicus, 72 h
# Experimental: C6 and U-87MG cell lines were obtained from the American Type Culture Collection (ATCC) and cultured in our laboratory. Rat C6 glioma cells were cultured in F12K nutrient medium (Gibco, Grand Island, […]) supplemented with 15% horse serum (Auckland, NZ), 2.5% fetal bovine serum (FBS), 100 U/mL penicillin, and […] streptomycin (Gibco, Paisley, Scotland, UK). Human U-87MG cells were cultured in minimum essential medium (MEM) supplemented with 10% FBS, 1% nonessential amino acids, 100 U/mL penicillin, and […] streptomycin. Cells were cultured under a humidified atmosphere containing 5% CO2 at 37°C, and medium was changed every 1 to 2 days.
# Tumor cells were seeded in 96-well plates at a density of 3500 cells/well. After 24 h in culture, cells were exposed to different concentrations of DMAMCL or medium alone (control) for 72 h. Cell viability was determined by MTT assays. Briefly, MTT regent (0.5 mg/mL) was added to wells, and cells were incubated for 4 h at 37°C. After removing the supernatant, 200 μL of dimethyl sulfoxide (DMSO) (Fluka, Switzerland) was added to dissolve formazan crystals. The absorbance at 570 nm was measured by a microplate reader (Thermo Labsystems, Helsinki, Finland). Control absorbance was taken as 100%. The absorbance of DMAMCL-treated cells was taken as percentage survival. […]
# [2] = test system: Bcl-2 and Bax in C6 cells; assay: Western blotting of Bcl-2 and Bax, C6 cells; format: cell-based, rat; details: 60 μM and 120μM, 24 hr
# Experimental: The cellular proteins were extracted from 10^7 cultured cells after drug treatments using RIPA lysis buffer (Promega, USA). Western blotting analysis was performed to determine cellular responses targeting apoptosis-related proteins including Bcl-2 and Bax. Briefly, C6 and U-87MG cells were treated with different doses of DMAMCL for 24 hr at 37°C. Then cells were washed twice with cold phosphate buffered saline (PBS) and lysed in RIPA buffer containing 1mmol/l PMSF (Pheylmethylsulfonyl fluoride, Sigma, USA) on ice for 30 min. The total proteins of cells were obtained by centrifugation at 12000 rpm for 15 min. Next, the lysate proteins were resolved by SDS-PAGE and transferred to the Immobilon-P membranes (Millipore, Billerica, MA, USA). The membranes were blocked by 5% nonfat milk in Tris-buffered saline with 0.1% Tween 20 (TBST) and immunoblotted with the antibodies against β-actin, Bcl-2 and Bax (Cellsignaling Technology, USA) at 4°C overnight. Then membranes were incubated with HRP-conjugated secondary antibody for 1.5 hr at room temperature. The targeting antibodies were stained with enhanced chemiluminescent reagents (Millipore, Billerica, MA, USA) and visualized by ChemiScope 3600 Mini systerm (Clinx Science Instruments, China).
# [3] = test system: intracerebral C6 glioma
# Experimental: Adult Wistar rats (120–180 g, age 4–8 weeks) were obtained from the Animal Center at the Academy of Military Medical Sciences and had animal certification of SCXK (army) 2012–001. Animals were housed in collective cages at a temperature of 23 ± 2°C and relative humidity of 40% to 70%. All rats had free access to food and water.
# Intracerebral tumor implantations were performed according to the following procedures. C6 tumors were maintained as subcutaneous tumors in rats. Subcutaneous masses were excised, dissociated, and mixed with matrigel on ice (BD Biosciences) at a ratio of 1:1. After removing of the hair on the skull, a small midline incision in the scalp was gently made under anesthesia with 2% sodium pentobarbital at a dose of 40mg/kg. C6 cells in matrigel (0.1 mL of the cell/matrigel mixture containing 10^8 cells /mL) were carefully injected into the right frontal cortex by a special 16-gauge stainless steel needle with 5 mm needle tubing. Implantation coordinates were determined from Swanson’s Stereotaxic Atlas guidelines (1992): 1.0 mm anterior and 3.0 mm lateral to bregma, at a depth of 5.0 mm from the brain surface. […] The syringe was slowly retracted, the hole was sealed with bone wax, and the incision was sutured under aseptic conditions. […] Then 0.015 mg/kg buprenorphine (s.c.) was administered to relieve the pain. The rats were replaced in cages and allowed to recover from anesthesia.
# Rats were divided into the following 5 treatment groups 24 h after surgery (n = 9 rats /group) according to rat weight: 1) vehicle (normal saline: NS); 2) vincristine (VCR) at 100μg/kg; 3) DMAMCL at 25 mg/kg; 4) DMAMCL at 50 mg/kg; and 5) DMAMCL at 100 mg/kg. All drugs were prepared in NS and administered once daily for 21 days. DMAMCL was administered orally, and VCR was injected into the caudal vein. Rats were weighed and monitored for signs of mortality daily. Twenty one days into the treatment, rats were euthanized via CO2 asphyxiation under deep anesthesia by sodium pentobarbital. Brains and tumors were separated from the cerebellum and medulla oblongata, and weighed, photographed, fixed in formalin, and embedded in paraffin for sectioning. The tumor: brain weight ratio was assessed to observe the degree of tumor cell growth in brain. Serial sections (5 μm in thickness) were stained by hematoxylin and eosin (HE).
# [4] = Biodistribution of DMAMCL in rats after a single oral dose (UPLC-MS/MS); format: in vivo, Wistar rats; set-up: Mean concentration in brain: unit not given here; details: single oral dose 100 mg/kg
# Experimental: All rats had free access to food and water. Before drug administration, rats were fasted for 12 h and water was freely available.
# Aqueous DMAMCL solutions were administered orally (100 mg/kg) (n = 6 rats per group). Blood and tissue samples from rats were collected at the setting time and analyzed on an ultraperformance liquid chromatography-mass spectrometry (UPLC-MS/MS) system (Waters/Micromass, Milford, MA) using noncompartmental analyses. All the biological specimens were detected at once or stored at -80°C for detection.
# [5] = DMAMCL 25 mg/kg orally once daily for 21 days
# [6] = DMAMCL 50 mg/kg orally once daily for 21 days
# [7] = DMAMCL 100 mg/kg orally once daily for 21 days
compound,measurement,setting,value
"CC1=C2CC[C@@](C)(O)[C@@H]2[C@H]2OC(=O)[C@@H](CN(C)C)[C@@H]2CC1 [DMAMCL, dimethylaminomicheliolide]",IC50,[1]; read-out: IC50,27.2 ± 1.89 µM
same,IC50,"[1]; read-out: x0 (midpoint of logistic fit, Fig 3A) (converted)",27.2 ± 1.89 µM
same,Bax expression (Western blot),[2],up-regulated Bax expression
same,Bcl-2 expression (Western blot),[2],down-regulated Bcl-2 expression
same,Body weight End,[3]; [5],223.8 ± 13.1 g
same,Inhibition (percent decrease in tumor weight compared to the vehicle group),[3]; [5],59.9%
same,Tumor weight,[3]; [5],0.29 ± 0.20 g
same,Tumor/brain,[3]; [5],15.0 ± 9.5 %
same,Rats surviving to the end of the study,"[3]; DMAMCL 25 mg/kg, 21 days",89%
same,Body weight End,[3]; [6],227.5 ± 11.9 g
same,Inhibition (percent decrease in tumor weight compared to the vehicle group),[3]; [6],78.7%
same,Tumor weight,[3]; [6],0.15 ± 0.12 g
same,Tumor/brain,[3]; [6],6.3 ± 3.9 %
same,Rats surviving to the end of the study,"[3]; DMAMCL 50 mg/kg, 21 days",89%
same,Body weight End,[3]; [7],224.0 ± 12.1 g
same,Inhibition (percent decrease in tumor weight compared to the vehicle group),[3]; [7],87.5%
same,Signs of toxicity in tumor-bearing rats,[3]; [7],no signs of systemic or intracranial toxicity
same,Tumor weight,[3]; [7],0.09 ± 0.09 g
same,Tumor/brain,[3]; [7],4.2 ± 3.1 %
same,Histopathology of brain tissue (HE),"[3]; DMAMCL 100 mg/kg, 21 days",appeared similar to normal brain tissues
same,Rats surviving to the end of the study,"[3]; DMAMCL 100 mg/kg, 21 days",100%
same,Kp at 0.083 h,"[4]; Wistar, rat, brain, rats, 0.083h, read-out: C brain / C plasma",1.45
same,Kp at 0.5 h,"[4]; Wistar, rat, brain, rats, 0.5h, read-out: C brain / C plasma",1.84
same,Kp at 3 h,"[4]; Wistar, rat, brain, rats, 3h, read-out: C brain / C plasma",1.91
same,concentration at 3 h,"[4]; Wistar, rat, brain, read-out: Concentration in rat brain",4.91 ± 0.869 µg/mL
same,Tmax,"[4]; Wistar, rat, brain, read-out: Time of peak concentration in rat brain",30 min
same,concentration at 3 h,"[4]; Wistar, rat, plasma, read-out: Concentration in plasma",2.57 ± 0.968 µg/mL
same,Concentration in brain compared with plasma,[4]; rats,higher in the brain than in plasma
same,Concentration in tissues compared with plasma,[4]; rats,dramatically higher in almost all tissues than in plasma
same,Mean concentration in brain,"[4]; rats, 0.083h",6360
same,Mean concentration in plasma,"[4]; rats, 0.083h",4373 µg/mL
same,Mean concentration in brain,"[4]; rats, 0.5h",18970
same,Mean concentration in plasma,"[4]; rats, 0.5h",10310 µg/mL
same,Mean concentration in brain,"[4]; rats, 3h",4913
same,Mean concentration in plasma,"[4]; rats, 3h",2567 µg/mL
same,Peak concentration in rat brain,[4]; 0.5 hours after administration,18970 ± 9603 ng/mL
